Results: the NIST ThermoML archive (doi:10.1021/je900596d)
± gives the expanded uncertainty stated by the source.

Details: for vapor or sublimation pressure: Liquid, Closed cell (Static) method; for mass density: 263.41 K, Fluid (supercritical or subcritical phases), Vibrating tube method

FC(F)=C(F)C(F)(F)F [hexafluoropropene]
Details	mass density [kg/m3]	vapor or sublimation pressure [kPa]
1.9 kPa	0.11 ± 0.03	–
2.4 kPa	0.12 ± 0.03	–
2.9 kPa	0.15 ± 0.03	–
3.5 kPa	0.21 ± 0.03	–
4.3 kPa	0.25 ± 0.03	–
5 kPa	0.26 ± 0.03	–
5.7 kPa	0.35 ± 0.03	–
6.3 kPa	0.39 ± 0.03	–
7.1 kPa	0.47 ± 0.03	–
7.8 kPa	0.48 ± 0.03	–
8.5 kPa	0.55 ± 0.03	–
9.3 kPa	0.61 ± 0.03	–
10 kPa	0.66 ± 0.03	–
10.7 kPa	0.71 ± 0.03	–
11.4 kPa	0.79 ± 0.03	–
12.1 kPa	0.8 ± 0.03	–
12.9 kPa	0.87 ± 0.03	–
13.6 kPa	0.9 ± 0.03	–
14.4 kPa	0.96 ± 0.03	–
15 kPa	1 ± 0.03	–
15.8 kPa	1.02 ± 0.03	–
16.5 kPa	1.08 ± 0.03	–
17.1 kPa	1.17 ± 0.03	–
17.9 kPa	1.18 ± 0.03	–
18.6 kPa	1.25 ± 0.03	–
20 kPa	1.33 ± 0.03	–
21.5 kPa	1.4 ± 0.03	–
22.9 kPa	1.53 ± 0.03	–
24.3 kPa	1.63 ± 0.03	–
25.8 kPa	1.75 ± 0.03	–
27.2 kPa	1.83 ± 0.03	–
28.6 kPa	1.89 ± 0.03	–
30 kPa	2.05 ± 0.03	–
31.4 kPa	2.13 ± 0.03	–
32.8 kPa	2.25 ± 0.03	–
34.2 kPa	2.33 ± 0.03	–
35.5 kPa	2.43 ± 0.03	–
36.3 kPa	2.5 ± 0.03	–
37.7 kPa	2.61 ± 0.03	–
39 kPa	2.7 ± 0.03	–
40.5 kPa	2.77 ± 0.03	–
41.9 kPa	2.87 ± 0.03	–
43.2 kPa	2.95 ± 0.03	–
44.5 kPa	3.08 ± 0.03	–
45.3 kPa	3.09 ± 0.03	–
46.6 kPa	3.21 ± 0.03	–
48 kPa	3.31 ± 0.03	–
49.4 kPa	3.4 ± 0.03	–
50.7 kPa	3.48 ± 0.03	–
52.1 kPa	3.59 ± 0.03	–
53.4 kPa	3.66 ± 0.03	–
54.7 kPa	3.8 ± 0.03	–
56.1 kPa	3.85 ± 0.03	–
57.5 kPa	3.97 ± 0.03	–
58.8 kPa	4.06 ± 0.03	–
60.1 kPa	4.18 ± 0.03	–
61.4 kPa	4.28 ± 0.03	–
62.8 kPa	4.33 ± 0.03	–
64 kPa	4.44 ± 0.03	–
65.4 kPa	4.56 ± 0.03	–
66.7 kPa	4.62 ± 0.03	–
68 kPa	4.73 ± 0.03	–
69.3 kPa	4.82 ± 0.03	–
70.5 kPa	4.89 ± 0.03	–
71.3 kPa	4.97 ± 0.03	–
72.5 kPa	5.04 ± 0.03	–
73.9 kPa	5.17 ± 0.03	–
75.2 kPa	5.2 ± 0.03	–
76.4 kPa	5.28 ± 0.03	–
77.7 kPa	5.44 ± 0.03	–
79 kPa	5.49 ± 0.03	–
80.3 kPa	5.61 ± 0.03	–
81.6 kPa	5.72 ± 0.03	–
82.7 kPa	5.81 ± 0.03	–
83.5 kPa	5.85 ± 0.03	–
84.7 kPa	5.95 ± 0.03	–
86 kPa	6 ± 0.03	–
87.2 kPa	6.11 ± 0.03	–
88.4 kPa	6.26 ± 0.03	–
89.8 kPa	6.31 ± 0.03	–
91 kPa	6.41 ± 0.03	–
92.3 kPa	6.52 ± 0.03	–
93.5 kPa	6.56 ± 0.03	–
94.6 kPa	6.62 ± 0.03	–
96 kPa	6.75 ± 0.03	–
97.3 kPa	6.84 ± 0.03	–
98.5 kPa	6.94 ± 0.03	–
99.7 kPa	7.02 ± 0.03	–
100.4 kPa	7.07 ± 0.03	–
101.6 kPa	7.14 ± 0.03	–
102.8 kPa	7.21 ± 0.03	–
104.5 kPa	7.41 ± 0.03	–
105.8 kPa	7.51 ± 0.03	–
107 kPa	7.55 ± 0.03	–
108.2 kPa	7.68 ± 0.03	–
109.5 kPa	7.75 ± 0.03	–
110.7 kPa	7.85 ± 0.03	–
112.4 kPa	7.99 ± 0.03	–
114.2 kPa	8.06 ± 0.03	–
115.5 kPa	8.22 ± 0.03	–
116.7 kPa	8.3 ± 0.04	–
117.9 kPa	8.33 ± 0.04	–
119.6 kPa	8.49 ± 0.04	–
120.8 kPa	8.59 ± 0.04	–
122 kPa	8.7 ± 0.04	–
123.2 kPa	8.78 ± 0.04	–
124.4 kPa	8.88 ± 0.04	–
126 kPa	8.99 ± 0.04	–
127.2 kPa	9.05 ± 0.04	–
128.4 kPa	9.16 ± 0.04	–
130.2 kPa	9.28 ± 0.04	–
131.8 kPa	9.44 ± 0.04	–
133 kPa	9.5 ± 0.04	–
134.7 kPa	9.61 ± 0.04	–
136.4 kPa	9.79 ± 0.04	–
138.1 kPa	9.87 ± 0.04	–
139.8 kPa	10.02 ± 0.04	–
141.5 kPa	10.14 ± 0.04	–
143.2 kPa	10.31 ± 0.04	–
144.8 kPa	10.44 ± 0.04	–
146.5 kPa	10.54 ± 0.04	–
148.1 kPa	10.66 ± 0.04	–
149.8 kPa	10.8 ± 0.04	–
151.4 kPa	10.89 ± 0.04	–
153 kPa	11.03 ± 0.04	–
154.7 kPa	11.17 ± 0.04	–
156.3 kPa	11.29 ± 0.04	–
157.9 kPa	11.41 ± 0.04	–
159.6 kPa	11.53 ± 0.04	–
161.2 kPa	11.7 ± 0.04	–
253.26 K	–	149.7 ± 1.1
258.26 K	–	184.1 ± 1.1
263.16 K	–	224.5 ± 1.1
